# Laboratory results published in US11185539B2 (priority 2017, dated 2021).
# Tests used:
# [1] = system: C57BL/6 mice with angiotensin II-induced diastolic heart failure; assay: Picrosirius-red collagen staining of heart sections, angiotensin II model (two weeks); format: in vivo; conditions: i.p. every other day, Bufalin 0.5, Lycorine 4.5, Anisomycin 10, Gitoxigenin 0.01 mg/kg, day 14
# Method: Diastolic heart failure (HF) was induced in C57BL/6 mice via implantation of angiotensin II filled minipumps. Male C57BL/6 mice 8-10 weeks old were used in the present invention being based on a C57BL/6N-background (Charles River, Germany).
# For implantation of angiotension II filled minipumps, Angiotensin-II is applied by osmotic minipumps for two weeks (Alzet® [Modell 1001]). The recommended dose amounts for 1.5 or 3.0 mg/kg/per day. The minipumps are filled under sterile conditions with Angiotensin-II or with isotonic saline solution functioning as a control substance. Implantation takes place under intraperitoneal injection anaesthesia. […] Mice are then fixed on a pre-heated operating table and are provided with Bepanthen eye salve against drying out of the conjunctives. The operating field is located in the right caudal third of the back. It is shaved and desinfected with Braunol, afterwards it is coated with a 0.5% Lidocain-solution. After a period of one hour implantation can be started. The skin is cut through vertical to the back line, preferably the length is one centimeter. A pocket from the cutting line to cranial is subcutaneously formed. Herein, the minipumps are injected. Afterwards, the skin is then closed with a 5-0 Prolene string with interrupted sutures. Then, the closed wound is coated again with Braunol. For preventing hypothermia mice wake up in their cages, which are placed up to one-third on a terrarium-warming mat with regulated temperatures of 37°. Surgery amounts for 5 minutes/per animal.
# Next, the natural compounds (Bufalin, Gitoxigenin, Lycorine, and Anisomycin) were injected intraperitoneally every other day during two consecutive weeks starting two days after the operation (see FIG. 6). DMSO was also injected into C57BL/6 mice with induced cardiac remodeling as a control. Cardiac function was assessed echocardiographically and fibrosis-development via collagen staining with picosirius-red in histological sections of the hearts (Example 4).
# Further, fourteen days after the operation, histological sections of the hearts were stained for collagen using picrosirius-red (n=3-5 per group) after treatment with said compounds (Bufalin: 0.5 mg/kg, Lycorine 4.5 mg/kg, Anisomycin: 10 mg/kg and Gitoxigenin: 0.01 mg/kg).
# [2] = Plasma markers of kidney and liver damage, angiotensin II model; format: in vivo, mice; conditions: Bufalin 0.5, Gitoxigenin 0.01, Lycorine 4.5, Anisomycin 10 mg/kg i.p. every other day; day 14
# Method: HF was induced in mice (Example 3) and Bufalin (0.5 mg/kg), Gitoxigenin (0.01 mg/kg), Lycorine (4.5 mg/kg), and Anisomycin (10 mg/kg) were injected as indicated in Example 3. Fourteen days after the operation, EDTA-plasma samples were drawn (n=2-3 per group) (see FIGS. 26 and 27).
# [3] = system: circular RNA CDR1as; assay: CDR1as expression in HCFs, qRT-PCR; format: cell-based, human; conditions: Lycorine 5 μM, others 1 μM, 24 h, vs DMSO
# Method: (§1) Expression levels of CDR1as are increased in primary HCFs upon treatment with Bufalin, Gitoxigenin, Lycorine, Anisomycin and Geldanamycin. HCFs were incubated for 24 h with Bufalin (1 μM), Gitoxigenin (1 μM,) Lycorine (5 μM), Anisomycin (1 μM) and Geldanamycin (1 μM) and upregulation of CDR1as (normalized to 18S rRNA) by the respective compound was validated via qRT-PCR (see FIG. 22).
# [4] = system: kidney and liver; assay: Kidney and liver histology (HE, PAS), therapeutic model, eight weeks; format: in vivo, mice; conditions: therapeutic approach; Bufalin 0.5, Lycorine 4.5 mg/kg; eight weeks after the operation
# Method: (§2) HF was induced in mice (Example 5) and Bufalin (0.5 mg/kg) as well as Lycorine (4.5 mg/kg) were injected as indicated in Example 5. Eight weeks after the operation, kidneys and livers were subjected to histological assessment via Hematoxylin and Eosin (HE) and Periodic acid-Schiff (PAS) stain (n=4 per group).
# [5] = system: kidney and liver; assay: Kidney and liver histology (HE, PAS), angiotensin II model, fourteen days; format: in vivo, mice; conditions: Bufalin 0.5, Lycorine 4.5 mg/kg; fourteen days after the operation
# Method: as §2, with “Again, HF” for “HF”, “3)” for “5)”, “3. Fourteen days” for “5. Eight weeks”, “(n=2-4” for “(n=4”, “group) (see FIGS. 28A and B).” for “group).”
# [6] = system: CDR1 mRNA; format: cell-based, human; conditions: Lycorine 5 μM, others 1 μM, 24 h, vs DMSO
# Method: as §1, with “of CDR1 mRNA change independently of miR-671-5p or” for “of”, “CDR1as” for “CDR1as are increased”, “impact on CDR1 mRNA level” for “upregulation of CDR1as”, “GAPDH)” for “18S rRNA)”, “23).” for “22).”
# [7] = system: C57BL/6N mice with angiotensin II-induced diastolic heart failure; assay: Hemodynamic measurement (MILLAR), therapeutic model; format: in vivo; conditions: therapeutic: Bufalin 0.5 mg/kg, Lycorine 4.5 mg/kg; week 8
# Method: Diastolic heart failure (HF) was induced in C57BL/6N mice via implantation of angiotensin II filled minipumps (see Example 3). In difference to Example 3, C57BL/6N mice were infused with 3 mg/kg/day angiotensin II by subcutaneously implanted minipumps for eight weeks.
# Next, Bufalin or Lycorine (dissolved in DMSO) or the solvent DMSO alone (as control) were injected intraperitoneally (i.p) every other day until the endpoint, starting two weeks after start of angiotensin II-infusion (see FIG. 11).
# Diastolic HF was induced in C57BL/6 mice and Bufalin or Lycorine were injected as indicated in Example 5. Eight weeks after the operation, hemodynamic measurements of the mice were assessed (n=6-7 per group) by treating the mice with said compounds (Bufalin: 0.5 mg/kg, Lycorine 4.5 mg/kg).
# [8] = system: primary human pulmonary fibroblasts (HPFs); assay: Proliferation of primary human pulmonary fibroblasts, BrdU-ELISA; format: cell-based; conditions: 24 h; for proliferation of pulmonary fibroblasts (HPFs): Lycorine 1, 5, 10 μM, Bufalin 0.1, 1, 10 μM
# Method: Cells of the rat renal fibroblast cell line NRK49F and primary human pulmonary fibroblasts (HPFs) were treated with Lycorine (1 μM, 5 μM and 10 μM) or Bufalin (0.1 μM, 1 μM, 10 μM) for 24 h and proliferation of respective fibroblasts was measured by BrdU-ELISA (see FIG. 39).
# [9] = system: Collagen1a1; assay: Collagen1a1 protein levels in HCFs, Western Blot; format: cell-based, human; conditions: Lycorine 5 μM, Bufalin, Gitoxigenin, Anisomycin 1 μM, 24 h, DMSO control
# Method: Additionally, HCFs were treated with said compounds (Lycorine: 5 μM, Bufalin: 1 μM, Gitoxigenin: 1 μM and Anisomycin: 1 μM) for 24 h as indicated again, lysed and analyzed for extracellular matrix component Collagen1a1 protein levels in primary HCFs (normalized to GAPDH) by representative Western Blot, DMSO refers as a control (see FIG. 2D, 3D, 4D, 5D).
# [10] = system: miR-671-5p; assay: miR-671-5p expression in HCFs, qRT-PCR; format: cell-based, human; conditions: Lycorine 5 μM, others 1 μM, 24 h, vs DMSO
SMILES,collagen deposition in heart sections (picrosirius-stained areas) [1],"plasma marker of kidney and liver damage (GOT, GPT, creatinine, urea) [2]",expression levels of CDR1as (normalized to 18S rRNA) [3],"kidney and liver morphology (HE, PAS) [4]","kidney and liver morphology (HE, PAS) [5]",expression levels of CDR1 mRNA (normalized to GAPDH) [6],end-diastolic pressure-volume relationship (EDPVR) [7],most effective amount (pulmonary fibroblasts) [8],proliferation of pulmonary fibroblasts (HPFs) [8],expression levels of Collagen1a1 (normalized to GAPDH) [9],expression levels of miR-671-5p (normalized to RNU48) [10]
O[C@H]1[C@H]2c3cc4c(cc3CN3CCC(=C[C@@H]1O)[C@H]23)OCO4 [Lycorine],prominent reduction of collagen deposition,no elevation,increase,"does not induce necrosis, inflammation or any morphological changes","does not induce necrosis, inflammation or any morphological changes",decrease,significant reduction,10 µM,significantly inhibits proliferation,decreases expression levels,decreased
COc1ccc(C[C@H]2NC[C@H](O)[C@H]2OC(C)=O)cc1 [Anisomycin],prominent reduction of collagen deposition,no elevation,increase,–,–,decrease,–,–,–,decreases expression levels,decreased
C[C@]12CC[C@H](O)C[C@H]1CC[C@@H]1[C@@H]2CC[C@]2(C)[C@@H](C3=CC(=O)OC3)[C@@H](O)C[C@]12O [Gitoxigenin],prominent reduction of collagen deposition,no elevation,increase,–,–,decrease,–,–,–,decreases expression levels,decreased
C[C@]12CC[C@H](O)C[C@H]1CC[C@@H]1[C@@H]2CC[C@]2(C)[C@@H](c3ccc(=O)oc3)CC[C@]12O [Bufalin],prominent reduction of collagen deposition,no elevation,increase,"does not induce necrosis, inflammation or any morphological changes","does not induce necrosis, inflammation or any morphological changes",decrease,significant reduction,10 µM,significantly inhibits,decreases expression levels,decreased
